In publication PMC12489660, “Multitargeted Caffeic Acid Derivatives Inhibit Cardiac RyR2- and NaV1.5- Channels but Stimulate SERCA2a Pump Activity” (ACS Omega, 2025):
Values joined by “and” are separate entries in the source; they are usually repeats but may differ in a detail not shown here. Equal entries are not always repeated.

Assays:
human NaV1.5 = human NaV1.5 (Homo sapiens, UniProt Q14524); test: FLIPR membrane potential assay on CHO NaV1.5 Duo cells (veratridine-induced); assay type: cell-based; settings: for effect on NaV1.5 activity (in words): concentration range 0.1 to 100 μM; for NaV1.5 activity in CHO cells: 10 μM, percentage from the control sample (100%), mean ± SEM
[1] = design: method as in earlier work; settings: class low in parentheses; ref (number not given); cited from earlier work
wild type mouse RyR2 = biological target: T1, wild type mouse RyR2 (Mus musculus, UniProt E9Q401); test: Time-lapse [Ca2+]ER assay in HEK-293 RyR2 R-CEPIA1er cells (RyR2 activity assay); assay type: cell-based; settings: 25 μM; for effect on RyR2 activity / [Ca2+]ER (in words): vs control 0.1 v/v% DMSO; for RyR2 activity: percentage from the control sample (100%), mean ± SEM;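 as to all read-outs here: ER Ca2+ read as R-CEPIA1er fluorescence ratio F/F0 (F0 mean of initial 90 s, F mean of final 100 s), compared with vehicle-treated control wells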
T1 construct: expressed in transfected cells; host or cells: HEK-293 cells stably expressing WT RyR2 and R-CEPIA1er (gift of Dr. Takashi Murayama), induced with doxycycline

HL-1 cells = test: CytoTox-Glo Cytotoxicity Assay; assay type: cell-based; settings: 24 h, concentrations up to 1 μM
Description: Cell viability was assessed using CytoTox-Glo Cytotoxicity Assay according to the manufacturing procedure (Promega GmbH). Briefly, HL-1 cells were cultivated for 24 h in black-walled, clear-bottom 96-well microplates (Corning) covered with fibronectin/gelatin in DMEM, containing different concentrations of the tested compound (10,000 cells/well). Luminescence of a luminogenic peptide substrate was measured before and after addition of the lysis reagent (digitonin). The viable cell contribution was determined by a subtractive method. 0.1% DMSO treated cell were taken as a control.

[2] = PermeaPad membrane permeability; assay type: in vitro ADME; settings: not told, room temperature, class low/medium in parentheses, read-out: P e (permeability rate)
Description: We determined permeability rates (P e ), which are a measure of how fast a compound can cross a membrane, using cell-free transport models (PermeaPad, innoME GmbH) The CA derivatives have medium to low permeability rates in the range 1.0–24.0 nm/s (Table ). Similar to S36, despite poor permeability, compounds 2–4, 8, and 9 acted on live RyR2-HEK-293 R-CEPIA1er cells inhibiting RyR2. […] Since PermeaPad is an artificial model that primarily reflects passive diffusion, it is likely that additional mechanisms contribute to the crossing of cell membranes by these compounds.
Membrane permeability was assessed using PermeaPad Plate according to the manufacturing procedure (innoME GmbH, Espelkamp, Germany). Briefly, 200 μL (V A) water was added into acceptor plate. 200 μL (V D) of 100–500 μM test compound in water was added directly to the well membranes of the donor plate. The donor plate contains a biomimetic membrane for simulating passive mass transfer through different barriers in the body. Then the donor plate was placed into the acceptor plate wells and incubated at room temperature for 24 h in dark. To determine peak absorbance of test compounds, absorbance spectra of acceptor solutions and initial solutions for each test compound were read out. The Permeability Rate (P e) was calculated using the formula:
P e = C × −ln (1 – ODA/ODB) cm/s, where OD A is the absorbance of acceptor solution, OD B is the absorbance of the standard solution; if the compound is able to permeabilize the membrane and fully reach equilibrium, 250 μM will be the final concentration of solution in the donor and acceptor wells. The coefficient C was calculated using the formula: C=VD×VA/(VD+VA)×Area×time where V A–acceptor volume (cm^3), V D–donor volume (cm^3), membrane area 0.24 cm^2, time is 86,400 s.

SERCA2a = biological target: T2, SERCA2a (Mus musculus, UniProt O55143); test: NADH-coupled ATPase assay on microsomal membrane vesicles from mouse heart ventricles (mouse SER); assay type: biochemical; settings: for ATPase activity of SERCA2a in mouse SER / effect on SERCA2a ATPase activity (in words): 10 μM; for ATPase activity of SERCA2a in mouse SER: percentage from the control sample (100%), mean ± SEM; for EC50: kinetic rate of NADH–NAD+ conversion, Figure S10: 200 µM free Ca2+; for effect on SERCA2a ATPase activity (in words): mouse SER
T2 construct: from tissue; host or cells: adult mouse heart ventricles, microsomal membrane vesicles
Description: To this end, we tracked the rate of nicotinamide adenine dinucleotide (NADH) oxidation linked to ATP hydrolysis by observing changes in NADH fluorescence over time. This was done after addition of ATP to solutions containing microsomal membranes enriched with SER vesicles isolated from adult mouse heart ventricles (mouse SER). The NADH fluorescence decrease was recorded on a FlexStation 3 Multimode Microplate Reader. […] We detected the highest increase in ATPase activity (up to 118%), when the vesicles were treated with borate complex 11–13 (Table ). We tested compounds 11–13 in the NADH assay buffer to see whether these compounds could contribute to the rate of NADH fluorescence reduction (Figures S7–S9). No significant deviations were found in the rate of NADH consumption compared to the control sample (0.1 v/v% DMSO).
Isolation of Microsomal Membrane Vesicles from mouse hearts was done according to procedure described earlier. All animal procedures were performed in accordance with national and institutional regulations.
Mouse ventricular microsomes (4–5 μg of total protein) were diluted in 100 μL of the assay buffer used for measurement of SERCA activity (described below) and incubated at room temperature for 10 min prior to the experiments. The measurements of SERCA2 activity were made at 25 °C by using a NADH -coupled ATPase assay as described in Radnai et al. with slight modifications. Briefly, the assay buffer contained 60 mM MOPS, 120 mM KCl, 6 mM MgCl2, 1 mM EGTA, 5 mM NaN3, 0.5 mM phosphoenolpyruvate and 0.67 mM CaCl2, pH 7.0. Before the reaction was started by the injection of 10 μL ATP (resulting in 2 mM final concentration in the well), 5 units/mL of both lactate dehydrogenase and pyruvate kinase, 0.5 mM NADH, and 1 μM Ca^2+ ionophore A-23187 (Sigma, C-7522) were added to the diluted sample with or without the tested compound (volume −150 μL). […] The NADH fluorescence decrease was recorded each 2 s for 5 min course on a FlexStation 3 Multi-Mode Microplate Reader in 96-well glass bottom plates (MatTek Corporation; Cat. No. PBK96G-1.5-5-F). Fluorescence was evoked by 380 nm excitation wavelength and collected in a bottom-read mode at 425 nm, cutoff–470 nm, 4 flashes per read. ATP was injected at 60 s, speed–125 μL/s, pipet height–140 μL. The data were analyzed with computer software GraphPad Prism version 8.3.1 (GraphPad Software, Inc.). The difference in signal decrease with and without microsomes was taken as an indicator for the additional ATPase activity performed by SERCA2. The obtained values for maximal SERCA2 activity were normalized for total protein concentration. Maximal SERCA2 activity values are reported as percentages of control (0.1% DMSO) values. Microsomal samples that were kept on ice until usage and set to 100%.

SERCA2 = SERCA2 (Mus musculus, UniProt O55143); test: Caffeine induced calcium release assay on live HL-1 cardiomyocytes; assay type: cell-based; settings: for activation of SERCA2 in HL-1: 10 μM, percentage from the control sample (100%), mean ± SEM; for EC50: 2 h preincubation, 10 mM caffeine, read-out: activation of SERCA2 in HL-1, EC50 (converted);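 as to all read-outs here: Read-out: caffeine-evoked peak minus basal fluorescence (ΔF Caff) of cytoplasmic FLIPR Calcium 6 dye, recorded for 1 min, compared with Tyrode's solution plus 0.1 v/v% DMSO as control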
SERCA2b = biological target: T3, SERCA2b (Homo sapiens, UniProt P16615); test: NADH fluorescence-coupled ATPase assay on microsomal membranes isolated from HEK-293T cells; assay type: biochemical; settings: 10 µM, HEK-293T microsomal membranes
T3 construct: endogenous in cells; host or cells: HEK-293T cells, microsomal membranes
Description: HL-1 cells are known to express cardiac SERCA2a. […] HL-1 cells are in fact derived from mouse atrial cardiomyocytes that coexpress SERCA2a and SERCA2b. , We assumed that such behavior of compounds 1 and 5 is associated with their selective action on additional SERCA2 isoform present in these cells.

human NaV1.5, sequence (Q14524 1-460 limits assumed): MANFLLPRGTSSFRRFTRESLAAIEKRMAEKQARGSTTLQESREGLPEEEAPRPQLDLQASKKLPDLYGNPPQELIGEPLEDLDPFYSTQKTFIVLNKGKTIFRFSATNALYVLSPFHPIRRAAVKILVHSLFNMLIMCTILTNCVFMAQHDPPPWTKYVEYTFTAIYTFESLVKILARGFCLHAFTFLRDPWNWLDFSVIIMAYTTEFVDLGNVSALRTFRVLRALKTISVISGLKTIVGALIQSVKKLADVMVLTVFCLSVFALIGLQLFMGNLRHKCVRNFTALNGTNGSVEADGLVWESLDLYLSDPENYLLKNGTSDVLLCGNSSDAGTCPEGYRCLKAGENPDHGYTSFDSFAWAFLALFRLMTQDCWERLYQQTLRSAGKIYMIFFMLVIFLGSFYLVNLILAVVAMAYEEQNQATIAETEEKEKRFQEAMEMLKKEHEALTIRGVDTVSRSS
human NaV1.5, sequence (Q14524 661-1004 limits assumed): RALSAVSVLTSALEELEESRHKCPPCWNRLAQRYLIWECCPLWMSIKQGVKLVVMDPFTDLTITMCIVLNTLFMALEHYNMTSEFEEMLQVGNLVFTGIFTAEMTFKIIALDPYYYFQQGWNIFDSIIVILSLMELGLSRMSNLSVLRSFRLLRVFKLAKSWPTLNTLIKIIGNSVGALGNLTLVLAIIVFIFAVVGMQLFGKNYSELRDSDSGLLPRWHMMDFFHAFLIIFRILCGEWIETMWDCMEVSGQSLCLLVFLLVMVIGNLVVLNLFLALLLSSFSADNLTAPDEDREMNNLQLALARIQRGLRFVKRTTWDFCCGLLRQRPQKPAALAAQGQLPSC
human NaV1.5, sequence (Q14524 1142-2016 limits assumed): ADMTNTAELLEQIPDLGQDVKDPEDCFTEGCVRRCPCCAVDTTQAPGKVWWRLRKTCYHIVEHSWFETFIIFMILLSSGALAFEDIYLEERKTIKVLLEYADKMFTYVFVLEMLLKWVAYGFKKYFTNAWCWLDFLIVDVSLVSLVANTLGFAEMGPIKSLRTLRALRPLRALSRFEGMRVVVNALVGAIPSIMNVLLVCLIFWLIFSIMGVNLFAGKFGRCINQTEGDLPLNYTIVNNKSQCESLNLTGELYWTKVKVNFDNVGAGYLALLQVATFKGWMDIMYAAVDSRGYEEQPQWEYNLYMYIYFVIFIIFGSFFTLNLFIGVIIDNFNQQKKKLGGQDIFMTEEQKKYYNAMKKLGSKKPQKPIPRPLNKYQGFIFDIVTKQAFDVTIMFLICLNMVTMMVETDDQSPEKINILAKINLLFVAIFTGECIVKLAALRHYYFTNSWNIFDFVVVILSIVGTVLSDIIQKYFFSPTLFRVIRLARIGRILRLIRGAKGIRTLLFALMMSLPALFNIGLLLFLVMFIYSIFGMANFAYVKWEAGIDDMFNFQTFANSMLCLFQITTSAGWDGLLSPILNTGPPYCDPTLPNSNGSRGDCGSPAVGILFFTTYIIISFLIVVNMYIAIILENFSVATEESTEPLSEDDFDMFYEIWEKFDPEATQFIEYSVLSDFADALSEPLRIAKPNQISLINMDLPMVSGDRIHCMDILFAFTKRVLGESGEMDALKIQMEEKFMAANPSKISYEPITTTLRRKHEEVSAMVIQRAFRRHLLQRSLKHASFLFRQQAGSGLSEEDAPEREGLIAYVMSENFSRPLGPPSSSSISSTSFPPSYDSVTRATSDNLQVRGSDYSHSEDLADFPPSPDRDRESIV
T2 sequence (O55143 1-998 isoform O55143-2): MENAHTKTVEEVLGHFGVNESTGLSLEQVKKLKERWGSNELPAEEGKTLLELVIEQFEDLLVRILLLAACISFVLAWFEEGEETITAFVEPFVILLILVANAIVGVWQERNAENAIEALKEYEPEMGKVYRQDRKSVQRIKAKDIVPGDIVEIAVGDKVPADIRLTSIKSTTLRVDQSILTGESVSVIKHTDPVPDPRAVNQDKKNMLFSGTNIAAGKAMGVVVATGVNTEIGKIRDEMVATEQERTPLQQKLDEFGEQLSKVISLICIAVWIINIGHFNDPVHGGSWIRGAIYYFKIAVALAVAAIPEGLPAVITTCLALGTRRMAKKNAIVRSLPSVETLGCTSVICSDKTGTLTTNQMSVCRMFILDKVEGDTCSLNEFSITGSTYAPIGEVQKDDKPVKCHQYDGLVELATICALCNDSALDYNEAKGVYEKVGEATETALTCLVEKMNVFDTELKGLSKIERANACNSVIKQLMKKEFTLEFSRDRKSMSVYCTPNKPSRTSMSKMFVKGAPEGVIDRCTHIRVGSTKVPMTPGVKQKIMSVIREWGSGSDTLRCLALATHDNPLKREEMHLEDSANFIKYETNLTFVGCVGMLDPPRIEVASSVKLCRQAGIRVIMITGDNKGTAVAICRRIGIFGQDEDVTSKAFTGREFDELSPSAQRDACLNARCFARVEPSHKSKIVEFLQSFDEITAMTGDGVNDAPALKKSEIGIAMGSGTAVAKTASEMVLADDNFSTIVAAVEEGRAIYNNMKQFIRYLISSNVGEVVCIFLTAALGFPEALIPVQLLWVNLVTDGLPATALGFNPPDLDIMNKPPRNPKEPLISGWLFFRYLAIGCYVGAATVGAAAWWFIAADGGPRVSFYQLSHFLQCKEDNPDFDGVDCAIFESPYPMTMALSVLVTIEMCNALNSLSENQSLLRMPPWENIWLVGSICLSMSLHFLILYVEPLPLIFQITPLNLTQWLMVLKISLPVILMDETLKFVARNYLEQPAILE
SERCA2, sequence (O55143 1-994 limits assumed): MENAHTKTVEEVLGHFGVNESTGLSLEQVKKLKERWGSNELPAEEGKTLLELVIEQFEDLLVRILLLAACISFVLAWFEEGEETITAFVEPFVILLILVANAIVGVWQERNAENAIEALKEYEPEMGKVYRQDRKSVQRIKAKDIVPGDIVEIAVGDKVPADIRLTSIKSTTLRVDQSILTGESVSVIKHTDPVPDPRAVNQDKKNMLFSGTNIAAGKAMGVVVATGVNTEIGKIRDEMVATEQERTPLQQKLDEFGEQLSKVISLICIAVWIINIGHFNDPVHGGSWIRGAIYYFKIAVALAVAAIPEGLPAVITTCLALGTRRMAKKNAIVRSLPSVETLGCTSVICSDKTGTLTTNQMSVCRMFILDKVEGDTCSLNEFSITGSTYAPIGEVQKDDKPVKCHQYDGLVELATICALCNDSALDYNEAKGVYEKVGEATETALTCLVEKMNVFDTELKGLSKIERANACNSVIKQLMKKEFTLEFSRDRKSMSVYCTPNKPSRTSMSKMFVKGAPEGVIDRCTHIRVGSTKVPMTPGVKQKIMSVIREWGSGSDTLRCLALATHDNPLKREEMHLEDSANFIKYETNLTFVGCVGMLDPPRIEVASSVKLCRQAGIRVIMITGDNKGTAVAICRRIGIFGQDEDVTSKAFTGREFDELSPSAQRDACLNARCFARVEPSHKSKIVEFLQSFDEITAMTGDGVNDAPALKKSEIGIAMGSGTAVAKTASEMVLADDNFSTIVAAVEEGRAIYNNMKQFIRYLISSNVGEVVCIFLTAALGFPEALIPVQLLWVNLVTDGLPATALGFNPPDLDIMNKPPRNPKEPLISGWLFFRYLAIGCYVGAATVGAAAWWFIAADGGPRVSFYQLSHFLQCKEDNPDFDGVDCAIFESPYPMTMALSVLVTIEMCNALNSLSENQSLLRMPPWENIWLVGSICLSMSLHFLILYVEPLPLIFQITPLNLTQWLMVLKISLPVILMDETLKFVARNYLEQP
T3 sequence (P16615 whole entry): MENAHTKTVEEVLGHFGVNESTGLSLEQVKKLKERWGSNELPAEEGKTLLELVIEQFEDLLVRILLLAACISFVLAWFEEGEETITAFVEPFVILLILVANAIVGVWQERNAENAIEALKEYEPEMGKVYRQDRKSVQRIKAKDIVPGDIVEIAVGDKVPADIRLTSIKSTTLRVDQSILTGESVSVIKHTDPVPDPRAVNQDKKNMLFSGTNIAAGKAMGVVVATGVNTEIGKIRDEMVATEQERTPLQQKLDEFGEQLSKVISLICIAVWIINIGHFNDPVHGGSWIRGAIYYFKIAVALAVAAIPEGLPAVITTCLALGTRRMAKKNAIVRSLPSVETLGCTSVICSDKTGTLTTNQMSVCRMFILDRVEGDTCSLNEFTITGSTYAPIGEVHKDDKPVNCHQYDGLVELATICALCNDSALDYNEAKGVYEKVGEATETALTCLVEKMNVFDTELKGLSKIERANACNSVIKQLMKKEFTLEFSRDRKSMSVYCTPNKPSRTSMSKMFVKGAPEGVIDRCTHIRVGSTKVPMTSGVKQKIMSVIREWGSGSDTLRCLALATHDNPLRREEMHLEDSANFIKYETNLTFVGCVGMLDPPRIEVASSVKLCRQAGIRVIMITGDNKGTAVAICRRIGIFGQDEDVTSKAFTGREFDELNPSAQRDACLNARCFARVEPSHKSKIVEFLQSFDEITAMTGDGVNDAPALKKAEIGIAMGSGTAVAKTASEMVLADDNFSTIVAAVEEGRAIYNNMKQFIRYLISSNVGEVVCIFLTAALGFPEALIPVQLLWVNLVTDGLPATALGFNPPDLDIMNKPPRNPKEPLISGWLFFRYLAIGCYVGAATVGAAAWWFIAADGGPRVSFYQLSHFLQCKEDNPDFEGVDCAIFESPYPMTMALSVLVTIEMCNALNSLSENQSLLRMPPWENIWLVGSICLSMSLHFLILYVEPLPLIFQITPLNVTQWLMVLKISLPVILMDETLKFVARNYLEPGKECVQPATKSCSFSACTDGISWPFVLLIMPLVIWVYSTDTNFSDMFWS

In the case of COc1ccc2c(c1)CN(C(=O)C(=O)O)CCS2 [Compound S36, reference compound], the “effect on NaV1.5 activity (in words)” value (human NaV1.5) is listed as “no effect on NaV1.5 activity”, the “P e (permeability rate)” value [1] is listed as 1.0 (low, ref ) 10^–6 cm/s and the “effect on RyR2 activity / [Ca2+]ER (in words)” value (wild type mouse RyR2) is listed as “increase in R-CEPIA1er fluorescence”. It also gave a RyR2 activity (wild type mouse RyR2) of 103.4 ± 0.7%.

With COc1ccc2c(c1)CN(CCCCCCCCNC/C=C/c1ccc(O)c(O)c1)CCS2 [Compound 9] the “viability of HL-1 cells (in words)” value (HL-1 cells) was “remained unchanged”, the “NaV1.5 activity in CHO cells” value (human NaV1.5) was 106.0 ± 1.0% and the “effect on NaV1.5 activity (in words)” value (human NaV1.5) was “no effect on NaV1.5”. For the same compound, the Papp at 24 h [2] was 0.4 ×10⁻⁶ cm/s, the “ATPase activity of SERCA2a in mouse SER” value (SERCA2a) was 113.1 ± 2.1% and the EC50 (SERCA2a) was 0.041 µM and 0.0412 µM. For the same compound, the “effect on RyR2 activity / [Ca2+]ER (in words)” value (wild type mouse RyR2) was “significantly increased [Ca^2+]ER”, the RyR2 activity (wild type mouse RyR2) was 105.7 ± 0.4% and the “activation of SERCA2 in HL-1” value (SERCA2) was 164.0 ± 3.0%. The EC50 (SERCA2; HL-1 cells) was 10.9 µM.

With COc1ccc2c(c1)CN(CCCCCCCC[NH+]([BH2-]C#N)C/C=C/c1ccc(O)c(O)c1)CCS2 (stereo not drawn) [Compound 13] the “viability of HL-1 cells (in words)” value (HL-1 cells) was “remained unchanged”, the “NaV1.5 activity in CHO cells” value (human NaV1.5) was 83.3 ± 0.9% and the Papp at 24 h [2] was 0.1 ×10⁻⁶ cm/s. The “ATPase activity of SERCA2a in mouse SER” value (SERCA2a) was 115.5 ± 3.7%, the EC50 (SERCA2a) was 0.023 µM and 0.0231 µM and the “effect on RyR2 activity / [Ca2+]ER (in words)” value (wild type mouse RyR2) was “significantly increased [Ca^2+]ER”. For the same compound, the RyR2 activity (wild type mouse RyR2) was 103.0 ± 0.4%, the “activation of SERCA2 in HL-1” value (SERCA2) was 299.1 ± 12.8% and the EC50 (SERCA2; HL-1 cells) was 2.5 µM. The “stimulatory effect compared to the control” value (SERCA2; HL-1 cells, from 1 to 10 μM, bell-shaped dose response, decreased at higher doses) was “up to 300%”.

With COc1ccc2c(c1)CN(CCCCNC(=O)/C=C/c1ccc(O)c(O)c1)CCS2 [Compound 5] the “NaV1.5 activity in CHO cells” value (human NaV1.5) was 97.7 ± 1.9%, the Papp at 24 h [2] was 0.9 ×10⁻⁶ cm/s and the “effect on ATPase activity (in words)” value (SERCA2b) was “significantly increased the ATPase activity”. For the same compound, the “effect on SERCA2a ATPase activity (in words)” value (SERCA2a) was “did not evoke a significant increase in ATPase activity”, the “ATPase activity of SERCA2a in mouse SER” value (SERCA2a) was 109.0 ± 4.0% and the “effect on RyR2 activity / [Ca2+]ER (in words)” value (wild type mouse RyR2) was “did not affect the RyR2 activity”. For the same compound, the RyR2 activity (wild type mouse RyR2) was 100.5 ± 0.8%, the “activation of SERCA2 in HL-1” value (SERCA2) was 190.6 ± 6.6% and the EC50 (SERCA2; HL-1 cells) was 9 µM and 9.1 µM.

In the case of COc1ccc(OCCCNC(=O)/C=C/c2ccc(O)c(O)c2)cc1 [Compound 1, (E)-3-(3,4-Dihydroxyphenyl)-N-(3-(4-methoxyphenyloxy)propyl)acrylamide], the “NaV1.5 activity in CHO cells” value (human NaV1.5) is reported as 91.8 ± 1.0%, the Papp at 24 h [2] is reported as 1.8 ×10⁻⁶ cm/s and the “effect on ATPase activity (in words)” value (SERCA2b) is reported as “significantly increased the ATPase activity”. For the same compound, the “effect on SERCA2a ATPase activity (in words)” value (SERCA2a) was “did not evoke a significant increase in ATPase activity”, the “ATPase activity of SERCA2a in mouse SER” value (SERCA2a) was 98.2 ± 6.5% and the “effect on RyR2 activity / [Ca2+]ER (in words)” value (wild type mouse RyR2) was “did not affect the RyR2 activity”. For the same compound, the RyR2 activity (wild type mouse RyR2) was 100.8 ± 1.3%, the “activation of SERCA2 in HL-1” value (SERCA2) was 157.7 ± 7.1% and the EC50 (SERCA2; HL-1 cells) was 15 µM and 14.9 µM.
